One test deals with human CYP11B1 (Homo sapiens (Human), UniProt P15538). Put plainly: G-402 cellular enzyme assay, human CYP11B1 (cortisol release). The class given is cell-based. The conditions noted are these: G-402 cells expressing human CYP11B1, 1 μM Deoxycortisol. The text has this:
(§1) The expression plasmids contains the ORF for either human/cyno CYP11B1 or CYP11B2 under the control of a suitable promoter (CMV-promoter) and a suitable resistance marker (neomycin). Using standard techniques the expression plasmid is transfected into G-402 cells and these cells are then selected for expressing the given resistance markers. Individual cell-clones are then selected and assessed for displaying the desired enzymatic activity using 11-Deoxycorticosterone (Cyp 11B2) or 11-Deoxycortisol (Cyp 11B1) as a substrate.
(§2) G-402 cells expressing CYP11 constructs were established as described above and maintained in McCoy's 5a Medium Modified, ATCC Catalog No. 30-2007 containing 10% FCS and 400 μg/ml G418 (Geneticin) at 37° C. under an atmosphere of 5% CO2/95% air. […] For assaying enzymatic activity, cells were plated onto 96 well plates and incubated for 16 h. An aliquot of the supernatant is then transferred and analyzed for the concentration of the expected product (Aldosterone for CYP11B2; Cortisol for CYP11B1). The concentrations of these steroids can be determined using HTRF assays from CisBio analyzing either Aldosterone or Cortisol.
(§3) Inhibition of the release of produced steroids can be used as a measure of the respective enzyme inhibition by test compounds added during the cellular enzyme assay. The dose dependent inhibition of enzymatic activity by a compound is calculated by means of plotting added inhibitor concentrations (x-axes) vs. measured steroid/product level (y-axes). The inhibition is then calculated by fitting the following 4-parameter sigmoidal function (Morgan-Mercer-Flodin (MMF) model) to the raw data points using the least squares method:
(§4) [formula] wherein, A is the maximum y value, B is the EC50 factor determined using XLFit, C is the minimum y value and D is the slope value.
(§5) EC50 values for compounds claimed herein were tested with the G402-based assay system described. Cyp 11B2 enzyme activity was tested in presence of 1 μM Deoxycorticosterone and variable amounts of inhibitors; Cyp 11B1 enzyme activity was tested in presence of 1 μM Deoxycortisol and variable amounts of inhibitors.

The next test concerns the target CYP11B2 (Homo sapiens (Human), UniProt P19099). Put plainly: G-402 cellular enzyme assay, human CYP11B2 (aldosterone release). The class given is cell-based. The conditions noted are these: G-402 cells expressing human CYP11B2, 1 μM Deoxycorticosterone.
Description: as §1, §2, §3, §4, §5

We go through 28 molecules from patent US9187429B2, “Phenyl-tetrahydroisoquinoline derivatives” (Hoffmann-La Roche Inc., priority 2012, dated 2015).

By EC50 is commonly meant the midpoint of the concentration-response curve.

Structures can show the parent of a compound that is named as a salt.

human CYP11B1, sequence (P15538 25-503): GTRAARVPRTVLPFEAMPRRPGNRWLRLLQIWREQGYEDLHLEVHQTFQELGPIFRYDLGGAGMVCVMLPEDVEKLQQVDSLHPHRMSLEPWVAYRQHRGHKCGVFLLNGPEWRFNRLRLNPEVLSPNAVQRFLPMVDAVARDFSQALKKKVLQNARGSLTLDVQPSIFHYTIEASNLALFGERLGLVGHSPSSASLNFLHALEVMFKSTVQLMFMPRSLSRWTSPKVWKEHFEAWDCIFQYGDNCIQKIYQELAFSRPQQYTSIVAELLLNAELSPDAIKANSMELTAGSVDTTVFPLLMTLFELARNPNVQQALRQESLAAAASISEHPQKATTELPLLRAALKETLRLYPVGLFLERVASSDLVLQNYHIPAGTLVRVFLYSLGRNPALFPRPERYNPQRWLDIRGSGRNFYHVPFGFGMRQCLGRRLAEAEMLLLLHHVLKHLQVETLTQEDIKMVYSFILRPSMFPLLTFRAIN
CYP11B2, sequence (P19099 25-503): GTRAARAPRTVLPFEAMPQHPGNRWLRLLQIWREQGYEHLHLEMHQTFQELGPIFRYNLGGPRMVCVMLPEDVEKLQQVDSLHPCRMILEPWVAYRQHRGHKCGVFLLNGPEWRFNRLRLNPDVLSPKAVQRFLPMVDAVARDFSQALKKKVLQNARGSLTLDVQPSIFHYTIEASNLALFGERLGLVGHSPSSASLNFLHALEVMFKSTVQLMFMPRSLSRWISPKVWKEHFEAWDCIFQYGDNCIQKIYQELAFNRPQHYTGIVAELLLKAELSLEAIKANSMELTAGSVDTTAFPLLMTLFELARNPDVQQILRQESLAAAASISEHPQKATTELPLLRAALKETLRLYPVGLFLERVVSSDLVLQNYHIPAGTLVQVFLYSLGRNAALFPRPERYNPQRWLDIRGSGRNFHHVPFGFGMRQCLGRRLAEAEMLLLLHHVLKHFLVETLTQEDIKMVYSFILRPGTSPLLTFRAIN

On to `CCC(=O)NC1CCCc2c(-c3ccc(F)cc3F)cncc21` (racemic) [Example 42, (rac)-N-(4-(2,4-Difluorophenyl)-5,6,7,8-tetrahydroisoquinolin-8-yl)propionamide], for which the EC50 at human CYP11B1 was 2.4 µM; at CYP11B2, 0.109 µM.
As to `CCC(=O)NC1CCCc2c(-c3cc(F)c(F)cc3F)cncc21` (racemic) [Example 43, (rac)-N-(4-(2,4,5-Trifluorophenyl)-5,6,7,8-tetrahydroisoquinolin-8-yl)propionamide], the EC50 at human CYP11B1 was 1.15 µM; at CYP11B2, 0.027 µM.
As to `CCC(=O)NC1CCCc2c(-c3ccc(F)c(F)c3)cncc21` (racemic) [Example 44, (rac)-N-(4-(3,4-Difluorophenyl)-5,6,7,8-tetrahydroisoquinolin-8-yl)propionamide], the EC50 on human CYP11B1 is 0.826 µM; at CYP11B2, 0.047 µM.
Regarding `CCC(=O)NC1CCCc2c(-c3ccc(Cl)c(Cl)c3)cncc21` (racemic) [Example 45, (rac)-N-(4-(3,4-Dichlorophenyl)-5,6,7,8-tetrahydroisoquinolin-8-yl)propionamide], the EC50 amounted to 0.177 µM on human CYP11B1 and 0.003 µM at CYP11B2.
On to `CCC(=O)NC1CCc2c(-c3ccc(C(F)(F)F)cc3)cncc21` (racemic) [Example 49, (rac)-N-(4-(4-(Trifluoromethyl)phenyl)-6,7-dihydro-5H-cyclopenta[c]pyridin-7-yl)propionamide], for which the values for the EC50 at human CYP11B1 and at CYP11B2 were 4.04 µM and 0.079 µM, respectively.
With `CCC(=O)NC1CCc2c(-c3ccc(Cl)c(F)c3)cncc21` (racemic) [Example 55, (rac)-N-(4-(4-Chloro-3-fluorophenyl)-6,7-dihydro-5H-cyclopenta[c]pyridin-7-yl)propionamide], the EC50 on human CYP11B1 came out at 0.184 µM; on CYP11B2 it was 0.012 µM.
For `CCC(=O)NC1CCc2c(-c3ccc(F)c(C)c3)cncc21` (racemic) [Example 58, (rac)-N-(4-(4-Fluoro-3-methylphenyl)-6,7-dihydro-5H-cyclopenta[c]pyridin-7-yl)propionamide], the EC50 was determined as 0.156 µM at human CYP11B1 and 0.01 µM at CYP11B2.
With `CCC(=O)NC1CCc2c(-c3ccc(C(F)(F)F)cc3F)cncc21` (racemic) [Example 61, (rac)-N-(4-(2-Fluoro-4-(trifluoromethyl)phenyl)-6,7-dihydro-5H-cyclopenta[c]pyridin-7-yl)propionamide], the EC50 at human CYP11B1 amounted to 3.61 µM; on CYP11B2 it was 0.044 µM.
Consider `CCS(=O)(=O)NC1CCc2c(-c3ccc(C(F)(F)F)cc3)cncc21` (racemic) [Example 64, (rac)-N-(4-(4-(Trifluoromethyl)phenyl)-6,7-dihydro-5H-cyclopenta[c]pyridin-7-yl)ethanesulfonamide], for which the EC50 on human CYP11B1 was determined as 12.7 µM; at CYP11B2 it was 0.73 µM.
With `CCS(=O)(=O)NC1CCc2c(-c3ccc(C(F)(F)F)c(F)c3)cncc21` (racemic) [Example 71, (rac)-N-(4-(3-Fluoro-4-(trifluoromethyl)phenyl)-6,7-dihydro-5H-cyclopenta[c]pyridin-7-yl)ethanesulfonamide], the EC50 at human CYP11B1 is 3.02 µM; at CYP11B2, 0.242 µM.
`OC1CCc2c(-c3ccc(C(F)(F)F)cc3F)cncc21` (racemic) [Example 80, (rac)-4-(2-Fluoro-4-(trifluoromethyl)phenyl)-6,7-dihydro-5H-cyclopenta[c]pyridin-7-ol]: the 50% effective concentration (EC50) on human CYP11B1 was determined as 0.427 µM; on CYP11B2 it was 0.0045 µM.
On to `N#Cc1ccc(-c2cncc3c2CCC3O)cc1` (racemic) [Example 81, (rac)-4-(7-Hydroxy-6,7-dihydro-5H-cyclopenta[c]pyridin-4-yl)benzonitrile], for which the EC50 at human CYP11B1 was 0.012 µM; on CYP11B2, 0.0013 µM.
On to `OC1CCc2c(-c3ccc(C(F)(F)F)c(F)c3)cncc21` (racemic) [Example 82, (rac)-4-(3-Fluoro-4-(trifluoromethyl)phenyl)-6,7-dihydro-5H-cyclopenta[c]pyridin-7-ol], for which the EC50 at human CYP11B1 stood at 0.071 µM; on CYP11B2 it was 0.0052 µM.
With `OC1CCc2c(-c3ccc(C(F)(F)F)cc3)cncc21` (racemic) [Example 83, (rac)-4-(4-(Trifluoromethyl)phenyl)-6,7-dihydro-5H-cyclopenta[c]pyridin-7-ol], the EC50 at human CYP11B1 is 0.74 µM; on CYP11B2, 0.0169 µM.
For the molecule `CC1(O)CCc2c(-c3ccc(C(F)(F)F)cc3)cncc21` (racemic) [Example 84, (rac)-7-Methyl-4-(4-(trifluoromethyl)phenyl)-6,7-dihydro-5H-cyclopenta[c]pyridin-7-ol], the EC50 at human CYP11B1 turned out to be 0.005 µM; at CYP11B2, 0.0048 µM.
For `NC1CCc2c(-c3ccc(C(F)(F)F)c(F)c3)cncc21` (racemic) [Example 89, (rac)-4-(3-Fluoro-4-trifluoromethyl-phenyl)-6,7-dihydro-5H-[2]pyrindin-7-ylamine], the values for the EC50 on human CYP11B1 and at CYP11B2 were 1.38 µM and 0.0547 µM, respectively.
As to `CCC(=O)NC1CCc2c(-c3ccc(C(F)(F)F)c(F)c3)cncc21` (racemic) [Example 90, (rac)-N-(4-(3-Fluoro-4-(trifluoromethyl)phenyl)-6,7-dihydro-5H-cyclopenta[c]pyridin-7-yl)propionamide], the EC50 is 1.9 µM on human CYP11B1 and 0.0267 µM on CYP11B2.
For the molecule `O=S(=O)(NC1CCc2c(-c3ccc(C(F)(F)F)c(F)c3)cncc21)C1CC1` (racemic) [Example 91, (rac)-Cyclopropanesulfonic acid [4-(3-fluoro-4-trifluoromethyl-phenyl)-6,7-dihydro-5H-[2]pyrindin-7-yl]-amide], the EC50 at human CYP11B1 amounted to 0.389 µM; at CYP11B2, 0.301 µM.
The matching figures for `CCC(=O)OC1CCc2c(-c3ccc(C(F)(F)F)c(F)c3)cncc21` (racemic) [Example 92, (rac)-Propionic acid 4-(3-fluoro-4-trifluoromethyl-phenyl)-6,7-dihydro-5H-[2]pyrindin-7-yl ester]: 0.441 µM and 0.0164 µM.
Take `NC1CCc2c(-c3ccc(C(F)(F)F)cc3)cncc21` (racemic) [Example 93, (rac)-4-(4-Trifluoromethyl-phenyl)-6,7-dihydro-5H-[2]pyrindin-7-ylamine]: the half-maximal effective concentration (EC50) at human CYP11B1 was determined as 0.364 µM; on CYP11B2, 0.0863 µM.
Take `O=S(=O)(NC1CCc2c(-c3ccc(C(F)(F)F)cc3)cncc21)C1CC1` (racemic) [Example 94, (rac)-Cyclopropanesulfonic acid [4-(4-trifluoromethyl-phenyl)-6,7-dihydro-5H-[2]pyrindin-7-yl]-amide]: the values for the concentration giving a half-maximal response (EC50) on human CYP11B1 and at CYP11B2 were 2.33 µM and 0.148 µM, respectively.
The matching figures for `CS(=O)(=O)NC1CCc2c(-c3ccc(C(F)(F)F)cc3)cncc21` (racemic) [Example 95, (rac)-N-[4-(4-Trifluoromethyl-phenyl)-6,7-dihydro-5H-[2]pyrindin-7-yl]-methanesulfonamide]: 1.96 µM and 1.8 µM.
The matching figures for `CCCS(=O)(=O)NC1CCc2c(-c3ccc(C(F)(F)F)cc3)cncc21` (racemic) [Example 96, (rac)-Propane-1-sulfonic acid [4-(4-trifluoromethyl-phenyl)-6,7-dihydro-5H-[2]pyrindin-7-yl]-amide]: 3.87 µM and 0.373 µM.
`CC(C)(C)OC(=O)COC1CCc2c(-c3ccc(C(F)(F)F)cc3)cncc21` (racemic) [Example 97, (rac)-tert-Butyl 2-(4-(4-(trifluoromethyl)phenyl)-6,7-dihydro-5H-cyclopenta[c]pyridin-7-yloxy)acetate]: the EC50 on human CYP11B1 turned out to be 0.0724 µM; on CYP11B2 it was 0.0014 µM.
As for `COC(=O)COC1CCc2c(-c3ccc(C(F)(F)F)cc3)cncc21` (racemic) [Example 98, (rac)-Methyl 2-(4-(4-(trifluoromethyl)phenyl)-6,7-dihydro-5H-cyclopenta[c]pyridin-7-yloxy)acetate], the EC50 amounted to 0.628 µM at human CYP11B1 and 0.0196 µM at CYP11B2.
Turning to `O=C(O)COC1CCc2c(-c3ccc(C(F)(F)F)cc3)cncc21` (racemic) [Example 99, (rac)-2-(4-(4-(Trifluoromethyl)phenyl)-6,7-dihydro-5H-cyclopenta[c]pyridin-7-yloxy)acetic acid hydrochloride], the EC50 at human CYP11B1 was 1.19 µM; on CYP11B2, 0.0659 µM.
As to `CNC(=O)COC1CCc2c(-c3ccc(C(F)(F)F)cc3)cncc21` (racemic) [Example 100, (rac)-N-Methyl-2-(4-(4-(trifluoromethyl)phenyl)-6,7-dihydro-5H-cyclopenta[c]pyridin-7-yloxy)acetamide], the EC50 at human CYP11B1 amounted to 0.43 µM; on CYP11B2, 0.0129 µM.
The corresponding values for `CN(C)C(=O)COC1CCc2c(-c3ccc(C(F)(F)F)cc3)cncc21` (racemic) [Example 101, (rac)-N,N-Dimethyl-2-(4-(4-(trifluoromethyl)phenyl)-6,7-dihydro-5H-cyclopenta[c]pyridin-7-yloxy)acetamide] are 1.27 µM and 0.0269 µM.
